In US20260223850A1, “SUBSTITUTED PYRROLIDONE COMPOUND, PREPARATION METHOD THEREFOR, COMPOSITION AND APPLICATION THEREOF” (QINGDAO KINGAGROOT CHEMICAL COMPOUND CO., LTD., priority 2023, published 2026):

What was measured:
Assay type in all cases: in vivo
[1] = tested on: Echinochloa phyllopogon; test: Seedling stage sealing experiment for water-seeding; conditions: 120 g a.i./ha, 15 days, fresh weight control rate
From the text: (§1) The activity level criteria for plant damage (i.e., growth control rate) are as follows: • Level 9: completely dead; • Level 8: growth control rate greater than or equal to 90% and less than 100%; • Level 7: growth control rate greater than or equal to 80% and less than 90%; • Level 6: growth control rate greater than or equal to 70% and less than 80%; • Level 5: growth control rate greater than or equal to 50% and less than 70%; • Level 4: growth control rate greater than or equal to 30% and less than 50%; • Level 3: growth control rate greater than or equal to 20% and less than 30%; • Level 2: growth control rate greater than or equal to 10% and less than 20%; • Level 1: growth control rate less than 10%; • Level 0: no effect.
(§2) The above growth control rates are fresh weight control rates.
(§3) Echinochloa phyllopogon, Digitaria sanguinalis, Huaidao (rice cultivar), etc. were broadcasted on the surface of nutrition bowls filled with soil and fully covered by soil. The foregoing well-prepared nutrition bowls were then placed in a cultivation box with water filled to a suitable height to keep the soil in the nutrition bowls moist. A test compound of the present invention was individually dissolved with acetone, then diluted into solution of a certain concentration using a certain amount of water, and sprayed using a spray tower. The plants were placed on a greenhouse seedbed and cultured for 15 days, and the experimental results were then collected. The compound was applied at 120, 60, 30 and 15 g a.i./ha in triplicate, and the results were averaged.

[2] = tested on: Huaidao (rice cultivar); test: Seedling stage sealing experiment for water-seeding (crop safety); conditions: 120 g a.i./ha, 15 days, fresh weight control rate; for Huaidao (rice cultivar) plant damage level: seedling stage sealing; for Huaidao (rice cultivar) plant damage level (growth control rate): spray, seedling stage sealing for water-seeding
From the text: as §1, §2, §3

[3] = tested on: Echinochloa crusgalli; test: Seedling stage sealing experiment for water-seeding; conditions: 120 g a.i./ha, 15 days, fresh weight control rate
From the text: as §1, §2, §3

[4] = spray, seedling stage sealing for water-seeding

In the case of `CN1CC(c2csc3ccccc23)C(C(=O)Nc2cnn(C)c2Cl)C1=O` (stereo not drawn) [Compound 359], the “Echinochloa phyllopogon activity level (growth control rate)” value (“Echinochloa phyllopogon activity level” for short) ([1]; seedling stage sealing) is reported as 7 (Level 7: growth control rate greater than or equal to 80% and less than 90%) and the “Huaidao (rice cultivar) plant damage level” value [2] is reported as 0.

For `CN1C[C@H](c2cc(Br)cc(C(F)F)c2)[C@@H](C(=O)Nc2cnn(C(F)F)c2Cl)C1=O` [512′], the “Echinochloa phyllopogon activity level” value [1, 4] was 7 (Level 7: growth control rate greater than or equal to 80% and less than 90%), the “Echinochloa crusgalli activity level (growth control rate)” value (shortened to “Echinochloa crusgalli activity level”) [3, 4] was 9 and the “Huaidao (rice cultivar) plant damage level (growth control rate)” value (“Huaidao … (growth control rate)” for short) [2] was 0.

With `Cc1cccc([C@H]2CN(C)C(=O)[C@@H]2C(=O)Nc2cnn(C)c2C(F)(F)F)c1` [136′] the “Echinochloa phyllopogon activity level” value ([1]; seedling stage sealing) was 9, the “Echinochloa crusgalli activity level” value ([3]; seedling stage sealing) was 9 and the “Huaidao (rice cultivar) plant damage level” value [2] was 0.

For `CN1C[C@H](c2cc(C(F)(F)F)cc(C(F)(F)F)c2)[C@@H](C(=O)Nc2cnn(C)c2C2CC2)C1=O` [510′], the “Echinochloa phyllopogon activity level” value [1, 4] was 9, the “Echinochloa crusgalli activity level” value [3, 4] was 9 and the “Huaidao … (growth control rate)” value [2] was 2 (Level 2: growth control rate greater than or equal to 10% and less than 20%).

With `CCc1ccc([C@H]2CN(C)C(=O)[C@@H]2C(=O)Nc2cnn(C)c2Cl)cc1` [244′] the “Echinochloa phyllopogon activity level” value ([1]; seedling stage sealing) was 7 (Level 7: growth control rate greater than or equal to 80% and less than 90%), the “Echinochloa crusgalli activity level” value ([3]; seedling stage sealing) was 9 and the “Huaidao (rice cultivar) plant damage level” value [2] was 0.

In the case of `COc1cc([C@H]2CN(C)C(=O)[C@@H]2C(=O)Nc2cnn(C(F)F)c2Cl)cc(C(F)(F)F)c1` [445′], the “Echinochloa phyllopogon activity level” value [1, 4] is reported as 9, the “Echinochloa crusgalli activity level” value [3, 4] is reported as 9 and the “Huaidao … (growth control rate)” value [2] is reported as 0.

`CCCn1ncc(NC(=O)[C@H]2C(=O)N(C)C[C@@H]2c2cccc(C)c2)c1Cl` [462′] was tested, and the “Echinochloa phyllopogon activity level” value [1, 4] was 9, the “Echinochloa crusgalli activity level” value [3, 4] was 9 and the “Huaidao … (growth control rate)” value [2] was 0.

`Cc1cc(C)cc([C@H]2CN(C)C(=O)[C@@H]2C(=O)Nc2cnn(C)c2F)c1` [271′] was tested, and the “Echinochloa phyllopogon activity level” value ([1]; seedling stage sealing) was 9, the “Echinochloa crusgalli activity level” value ([3]; seedling stage sealing) was 9 and the “Huaidao (rice cultivar) plant damage level” value [2] was 0.

`COC(=O)c1c(NC(=O)[C@H]2C(=O)N(C)C[C@@H]2c2cccc(C(F)(F)F)c2)cnn1C` [199′] was tested, and the “Echinochloa phyllopogon activity level” value ([1]; seedling stage sealing) was 6 (Level 6: growth control rate greater than or equal to 70% and less than 80%), the “Echinochloa crusgalli activity level” value ([3]; seedling stage sealing) was 6 (Level 6: growth control rate greater than or equal to 70% and less than 80%) and the “Huaidao (rice cultivar) plant damage level” value [2] was 0.

With `C=C(C)c1c(NC(=O)[C@H]2C(=O)N(C)C[C@@H]2c2cc(C)cc(C)c2)cnn1C` [276′] the “Echinochloa phyllopogon activity level” value ([1]; seedling stage sealing) was 6 (Level 6: growth control rate greater than or equal to 70% and less than 80%), the “Echinochloa crusgalli activity level” value ([3]; seedling stage sealing) was 9 and the “Huaidao (rice cultivar) plant damage level” value [2] was 0.

For `C=Cc1c(NC(=O)[C@H]2C(=O)N(C)C[C@@H]2c2cccc(C(F)(F)F)c2)cnn1C(F)F` [406′], the “Echinochloa phyllopogon activity level” value ([1]; seedling stage sealing) was 9, the “Echinochloa crusgalli activity level” value ([3]; seedling stage sealing) was 9 and the “Huaidao (rice cultivar) plant damage level” value [2] was 2 (Level 2: growth control rate greater than or equal to 10% and less than 20%).

`C=Cc1c(NC(=O)[C@H]2C(=O)N(C)C[C@@H]2c2cc(C)cc(C)c2)cnn1C(F)F` [496′] was tested, and the “Echinochloa phyllopogon activity level” value [1, 4] was 9, the “Echinochloa crusgalli activity level” value [3, 4] was 9 and the “Huaidao … (growth control rate)” value [2] was 0.

In the case of `CCn1ncc(NC(=O)[C@H]2C(=O)N(C)C[C@@H]2c2cccc(C(F)(F)F)c2)c1C1CC1` [408′], the “Echinochloa phyllopogon activity level” value ([1]; seedling stage sealing) is reported as 9, the “Echinochloa crusgalli activity level” value ([3]; seedling stage sealing) is reported as 9 and the “Huaidao (rice cultivar) plant damage level” value [2] is reported as 0.

For `Cc1nn(C(F)F)c(Cl)c1NC(=O)[C@H]1C(=O)N(C)C[C@@H]1c1cccc(C(F)(F)F)c1` [209′], the “Echinochloa phyllopogon activity level” value ([1]; seedling stage sealing) was 6 (Level 6: growth control rate greater than or equal to 70% and less than 80%), the “Echinochloa crusgalli activity level” value ([3]; seedling stage sealing) was 7 (Level 7: growth control rate greater than or equal to 80% and less than 90%) and the “Huaidao (rice cultivar) plant damage level” value [2] was 0.

For `CN1C[C@H](c2cc(Br)cc(C(F)(F)F)c2)[C@@H](C(=O)Nc2cnn(C)c2C2CC2)C1=O` [514′], the “Echinochloa phyllopogon activity level” value [1, 4] was 6 (Level 6: growth control rate greater than or equal to 70% and less than 80%), the “Echinochloa crusgalli activity level” value [3, 4] was 9 and the “Huaidao … (growth control rate)” value [2] was 0.

In the case of `CCc1cc(CC)cc([C@H]2CN(C)C(=O)[C@@H]2C(=O)Nc2cnn(C)c2Cl)c1` [439′], the “Echinochloa phyllopogon activity level” value ([1]; seedling stage sealing) is reported as 9, the “Echinochloa crusgalli activity level” value ([3]; seedling stage sealing) is reported as 9 and the “Huaidao (rice cultivar) plant damage level” value [2] is reported as 2 (Level 2: growth control rate greater than or equal to 10% and less than 20%).

For `CN1C[C@H](c2cc(Cl)cc(Cl)c2)[C@@H](C(=O)Nc2cnn(C(F)F)c2Cl)C1=O` [442′], the “Echinochloa phyllopogon activity level” value ([1]; seedling stage sealing) was 8 (Level 8: growth control rate greater than or equal to 90% and less than 100%), the “Echinochloa crusgalli activity level” value ([3]; seedling stage sealing) was 8 (Level 8: growth control rate greater than or equal to 90% and less than 100%) and the “Huaidao (rice cultivar) plant damage level” value [2] was 0.

In the case of `CCc1cc(C)cc([C@H]2CN(C)C(=O)[C@@H]2C(=O)Nc2cnn(C(F)F)c2Cl)c1` [438′], the “Echinochloa phyllopogon activity level” value ([1]; seedling stage sealing) is reported as 9, the “Echinochloa crusgalli activity level” value ([3]; seedling stage sealing) is reported as 9 and the “Huaidao (rice cultivar) plant damage level” value [2] is reported as 2 (Level 2: growth control rate greater than or equal to 10% and less than 20%).

For `Cc1cc([C@H]2CN(C)C(=O)[C@@H]2C(=O)Nc2cnn(C)c2Cl)cc(C)c1C` [447′], the “Echinochloa phyllopogon activity level” value [1, 4] was 9, the “Echinochloa crusgalli activity level” value [3, 4] was 9 and the “Huaidao … (growth control rate)” value [2] was 0.

With `COC(=O)c1c(NC(=O)[C@H]2C(=O)N(C)C[C@@H]2c2cc(C)cc(C)c2)cnn1C` [433′] the “Echinochloa phyllopogon activity level” value ([1]; seedling stage sealing) was 6 (Level 6: growth control rate greater than or equal to 70% and less than 80%), the “Echinochloa crusgalli activity level” value ([3]; seedling stage sealing) was 9 and the “Huaidao (rice cultivar) plant damage level” value [2] was 0.

For `Cc1cc(C)cc([C@H]2CN(C)C(=O)[C@@H]2C(=O)Nc2cnn(C)c2)c1` [274′], the “Echinochloa crusgalli activity level” value ([3]; seedling stage sealing) was 7 (Level 7: growth control rate greater than or equal to 80% and less than 90%) and the “Huaidao (rice cultivar) plant damage level” value [2] was 0.

`CCc1cc(C)cc([C@H]2CN(C)C(=O)[C@@H]2C(=O)Nc2cnn(C)c2Cl)c1` [287′] was tested, and the “Echinochloa phyllopogon activity level” value ([1]; seedling stage sealing) was 9 and the “Huaidao (rice cultivar) plant damage level” value [2] was 0.

For `Cc1cc(C)cc([C@H]2CN(C)C(=O)[C@@H]2C(=O)N(C)c2cnn(C)c2Cl)c1` [490′], the “Echinochloa crusgalli activity level” value [3, 4] was 9 and the “Huaidao … (growth control rate)” value [2] was 0.

For `Cc1cc(C)cc(C2CN(C)C(=O)C2C(=O)Nc2cnn(C)c2N(C)C)c1` (stereo not drawn) [Compound 499], the “Echinochloa crusgalli activity level” value [3, 4] was 8 (Level 8: growth control rate greater than or equal to 90% and less than 100%) and the “Huaidao … (growth control rate)” value [2] was 0.

In the case of `Cc1cc(C2CC2)cc([C@H]2CN(C)C(=O)[C@@H]2C(=O)Nc2cnn(C)c2Cl)c1` [289′], the “Echinochloa phyllopogon activity level” value ([1]; seedling stage sealing) is reported as 9 and the “Huaidao (rice cultivar) plant damage level” value [2] is reported as 0.

With `Cc1cccc([C@H]2CN(C)C(=O)[C@@H]2C(=O)Nc2cnn(C(=O)OC(C)(C)C)c2Cl)c1` [463′] the “Echinochloa crusgalli activity level” value [3, 4] was 6 (Level 6: growth control rate greater than or equal to 70% and less than 80%) and the “Huaidao … (growth control rate)” value [2] was 0.

In the case of `Cc1cccc([C@H]2CN(C)C(=O)[C@@H]2C(=O)Nc2cnn(C(C)(C)C)c2Cl)c1` [384′], the “Echinochloa crusgalli activity level” value ([3]; seedling stage sealing) is reported as 6 (Level 6: growth control rate greater than or equal to 70% and less than 80%) and the “Huaidao (rice cultivar) plant damage level” value [2] is reported as 0.

`CN1C[C@H](c2cc(Br)cc(C(F)F)c2)[C@@H](C(=O)Nc2cnn(C)c2C2CC2)C1=O` [513′] was tested, and the “Echinochloa crusgalli activity level” value [3, 4] was 9 and the “Huaidao … (growth control rate)” value [2] was 0.

For `C=C(C)c1cccc([C@H]2CN(C)C(=O)[C@@H]2C(=O)Nc2cnn(C)c2Cl)c1` [150′], the “Echinochloa crusgalli activity level” value ([3]; seedling stage sealing) was 6 (Level 6: growth control rate greater than or equal to 70% and less than 80%) and the “Huaidao (rice cultivar) plant damage level” value [2] was 0.

In the case of `Cc1cc(C)cc([C@H]2CN(C)C(=O)[C@@H]2C(=O)N(CC2CC2)c2cnn(C)c2Cl)c1` [367′], the “Echinochloa crusgalli activity level” value ([3]; seedling stage sealing) is reported as 9 and the “Huaidao (rice cultivar) plant damage level” value [2] is reported as 1 (Level 1: growth control rate less than 10%).

`CN1C[C@H](c2cccc(C(F)(F)F)c2)[C@@H](C(=O)Nc2cnn(C)c2C(N)=O)C1=O` [482′] was tested, and the “Echinochloa crusgalli activity level” value [3, 4] was 9 and the “Huaidao … (growth control rate)” value [2] was 0.

For `CN1C[C@H](c2cccc(C3CC3)c2)[C@@H](C(=O)Nc2cnn(C)c2Cl)C1=O` [151′], the “Echinochloa phyllopogon activity level” value ([1]; seedling stage sealing) was 9 and the “Huaidao (rice cultivar) plant damage level” value [2] was 0.

`Cc1cc(C)cc([C@H]2CN(C)C(=O)[C@@H]2C(=O)Nc2cnn(C(C)C)c2C2CC2)c1` [278′] was tested, and the “Echinochloa crusgalli activity level” value ([3]; seedling stage sealing) was 6 (Level 6: growth control rate greater than or equal to 70% and less than 80%) and the “Huaidao (rice cultivar) plant damage level” value [2] was 0.

With `Cc1cc(C)cc([C@H]2CN(C)C(=O)[C@@H]2C(=O)Nc2cnn(C(C)(C)C)c2Cl)c1` [267′] the “Echinochloa crusgalli activity level” value ([3]; seedling stage sealing) was 6 (Level 6: growth control rate greater than or equal to 70% and less than 80%) and the “Huaidao (rice cultivar) plant damage level” value [2] was 0.
